Laboratory results published in patent US20230087609A1, “USE OF A SOLUBLE GUANYLATE CYCLASE (sGC) STIMULATOR OR OF A COMBINATION OF A sGC STIMULATOR AND AN sGC ACTIVATOR FOR CONDITIONS WHEREIN THE HEME GROUP OF sGC IS OXIDIZED OR WHEREIN sGC IS DEFICIENT IN HEME” (Universiteit Maastricht, priority 2020, published 2023).

Tested on: C57B16/J mice, transient occlusion of the middle cerebral artery (tMCAO)
Experiment: tMCAO ischemia model, infarct size
Assay type: in vivo, mouse
Settings: 0.1 mg/kg i.p. 1 h after reperfusion; 1 h tMCAO, 24 h reperfusion; versus non-treated animals (FIG. 10)
Protocol: C57B16/J mice were anesthetized with isoflurane (0.6% in oxygen). The animal was placed on a heating-pad, and rectal temperature was maintained at 37.0° C. Transient cerebral ischemia was induced using an intraluminal filament technique. Using a surgical microscope (Tecnoscopio OPMI pico, Carl Zeiss, Meditec Iberia SA, Spain), a midline neck incision was made and the right common and external carotid arteries were isolated and permanently ligated. A microvascular temporarily ligature was placed on the internal carotid artery to temporarily stop the blood flow. A silicon rubber-coated monofilament (6023910PK10, Doccol, USA) was inserted through a small incision into the common carotid artery and advanced into the internal carotid artery until a resistance is felt. […]
After sacrificing the mice, brains were quickly removed and cut in four 2-mm thick coronal sections using a mouse brain slice matrix (Harvard Apparatus, USA). […] Indirect infarct volumes were calculated by volumetry (ImageJ software, National Institutes of Health, USA) according to the following equation: Vindirect (mm^3)=Vinfarct×(1−(Vih−Vch)/Vch), where the term (Vih−Vch) represents the volume difference between the ischemic hemisphere and the control hemisphere and (Vih−Vch)/Vch expresses this difference as a percentage of the control hemisphere.

COC(=O)N(C)c1c(N)nc(-c2nn(Cc3ccccc3F)c3ncccc23)nc1N [BAY 63-2521, riociguat]
infarct size / infarct volume: reduces infarct size
